# How the values were obtained:
# [1] = test system: A/California/07/2009 (H1N1); test: Antiviral activity (drug efficacy evaluation by concentration) against A/California/07/2009 (H1N1); type: cell-based, A type influenza virus; details: Influenza A virus, H1N1, A/California/07/2009 (H1N1); read-out: EC50 A/California/07/2009 (H1N1)
# in vitro = details: CC50 B/Florida/04/2006, cytotoxicity in the B/Florida/04/2006 assay
# B/Florida/04/2006 = test: Antiviral activity (drug efficacy evaluation by concentration) against B/Florida/04/2006; type: cell-based, B type influenza virus; details: read-out: EC50 B/Florida/04/2006, B/Florida/04/2006
# A/Perth/16/2009 (H3N2) = test: Antiviral activity (drug efficacy evaluation by concentration) against A/Perth/16/2009 (H3N2); type: cell-based, A type influenza virus; details: Influenza A virus, H3N2, A/Perth/16/2009 (H3N2); read-out: EC50 A/Perth/16/2009 (H3N2)
SMILES,EC50 [1] [µM],CC50 (in vitro) [µM],EC50 (B/Florida/04/2006) [µM],EC50 (A/Perth/16/2009 (H3N2)) [µM]
"Cc1nn(Cc2nnc(SCc3ccccc3-c3ccccc3)o2)c(C)c1Br [Compound 1, 2-(([1,1′-biphenyl]-2-ylmethyl)thio)-5-((4-bromo-3,5-dimethyl-1H-pyrazol-1-yl)methyl)-1,3,4-oxadiazole]",0.77,41.3,0.98,1.15
"Brc1cnn(Cc2nnc(SCc3ccccc3-c3ccccc3)o2)c1 [Compound 3, 2-(([1,1′-biphenyl]-2-ylmethyl)thio)-5-((4-bromo-1H-pyrazol-1-yl)methyl)-1,3,4-oxadiazole]",1.36,> 50,1.21,1.75
"c1ccc(-c2ccccc2CSc2nnc(Cn3cccn3)o2)cc1 [Compound 4, 2-((1H-pyrazol-1-yl)methyl)-5-(([1,1′-biphenyl]-2-ylmethyl)thio)-1,3,4-oxadiazole]",> 50,> 50,> 50,> 50
"Cc1cc(C)n(Cc2nnc(SCc3ccccc3-c3ccccc3)o2)n1 [Compound 5, 2-(([1,1′-biphenyl]-2-ylmethyl)thio)-5-((3,5-dimethyl-1H-pyrazol-1-yl)methyl)-1,3,4-oxadiazole]",8.68,> 50,9.49,10.7
"Cc1nn(Cc2nnc(SCc3ccccc3-c3ccccc3)o2)c(C)c1Cl [Compound 7, 2-(([1,1′-biphenyl]-2-ylmethyl)thio)-5-((4-chloro-3,5-dimethyl-1H-pyrazol-1-yl)methyl)-1,3,4-oxadiazole]",1.26,> 50,1.11,1.89
"Cc1ccccc1CSc1nnc(Cn2nc(C)c(Br)c2C)o1 [Compound 9, 2-((4-bromo-3,5-dimethyl-1H-pyrazol-1-yl)methyl)-5-((2-methylbenzyl)thio)-1,3,4-oxadiazole]",4.2,> 50,4.7,5.55
"Brc1ccn(Cc2nnc(SCc3ccccc3-c3ccccc3)o2)n1 [Compound 11, 2-(([1,1′-biphenyl]-2-ylmethyl)thio)-5-((3-bromo-1H-pyrazol-1-yl)methyl)-1,3,4-oxadiazole]",13.2,> 50,12.9,12.5
"Cc1nn(Cc2nnc(SCC(=O)c3ccccc3-c3ccccc3)o2)c(C)c1Br [Compound 13, 1-([1,1′-biphenyl]-2-yl)-2-((5-((4-bromo-3,5-dimethyl-1H-pyrazol-1-yl)methyl)-1,3,4-oxadiazol-2-yl)thio)ethan-1-on]",> 50,> 50,42.5,> 50
"Cc1nn(Cc2nnc(SCc3ccccc3)o2)c(C)c1Br [Compound 14, 2-(benzylthio)-5-((4-bromo-3,5-dimethyl-1H-pyrazol-1-yl)methyl)-1,3,4-oxadiazole]",18,> 50,16.4,20.5
"Cc1nn(Cc2nnc(NCc3ccccc3-c3ccccc3)o2)c(C)c1Br [Compound 17, N-([1,1′-biphenyl]-2-ylmethyl)-5-((4-bromo-3,5-dimethyl-1H-pyrazol-1-yl)methyl)-1,3,4-oxadiazol-2-amine]",35.2,38.1,19,30
"c1ccc(Cc2nnc(SCc3ccccc3-c3ccccc3)o2)cc1 [Compound 18, 2-(([1,1′-biphenyl]-2-ylmethyl)thio)-5-benzyl-1,3,4-oxadiazole]",6.1,> 50,5.18,6.8
"Cc1nn(Cc2nnc(SCc3ccccc3-c3cccnc3)o2)c(C)c1Br [Compound 19, 2-((4-bromo-3,5-dimethyl-1H-pyrazol-1-yl)methyl)-5-((2-(pyridin-3-yl)benzyl)thio)-1,3,4-oxadiazole]",> 50,> 50,> 50,> 50
"Brc1ccc(Cc2nnc(SCc3ccccc3-c3ccccc3)o2)cc1 [Compound 22, 2-(([1,1′-biphenyl]-2-ylmethyl)thio)-5-(4-bromobenzyl)-1,3,4-oxadiazole]",4.9,> 50,4.88,5
"Cc1nn(Cc2nnc(SCc3ccccc3C(C)C)o2)c(C)c1Br [Compound 23, 2-((4-bromo-3,5-dimethyl-1H-pyrazol-1-yl)methyl)-5-((2-isopropylbenzyl)thio)-1,3,4-oxadiazole]",0.6,14.2,0.82,1.1
"Cc1nn(Cc2nnc(SC(c3ccccc3)c3ccccc3)o2)c(C)c1Br [Compound 25, 2-(benzhydrylthio)-5-((4-bromo-3,5-dimethyl-1H-pyrazol-1-yl)methyl)-1,3,4-oxadiazole]",2.5,9.4,5.18,2
"Cc1ccccc1CCSc1nnc(Cn2nc(C)c(Br)c2C)o1 [Compound 26, 2-((4-bromo-3,5-dimethyl-1H-pyrazol-1-yl)methyl)-5-((2-methylphenethyl)thio)-1,3,4-oxadiazole]",31.2,> 50,36.2,29.4
"c1ccc(-c2ccccc2CSc2nnc(Cc3ccccn3)o2)cc1 [Compound 27, 2-(([1,1′-biphenyl]-2-ylmethyl)thio)-5-(pyridin-2-ylmethyl)-1,3,4-oxadiazole]",8.7,> 50,13.4,6.8
"c1ccc(-c2cnn(Cc3nnc(SCc4ccccc4-c4ccccc4)o3)c2)cc1 [Compound 30, 2-(([1,1′-biphenyl]-2-ylmethyl)thio)-5-((4-phenyl-1H-pyrazol-1-yl)methyl)-1,3,4-oxadiazole]",> 50,> 50,> 50,13
"Cc1nn(Cc2nnc(SCc3ccccc3-n3cccc3)o2)c(C)c1Br [Compound 31, 2-((2-(1H-pyrrol-1-yl)benzyl)thio)-5-((4-bromo-3,5-dimethyl-1H-pyrazol-1-yl)methyl)-1,3,4-oxadiazole]",1.8,11.8,3.57,2.3
"Cc1nn(Cc2nnc(SCc3ccccc3-c3ccoc3)o2)c(C)c1Br [Compound 34, 2-((4-bromo-3,5-dimethyl-1H-pyrazol-1-yl)methyl)-5-((2-(furan-3-yl)benzyl)thio)-1,3,4-oxadiazole]",1.4,22.8,4.48,1.8
"Cc1nn(Cc2nnc(SCc3ccccc3Cc3ccccc3)o2)c(C)c1Br [Compound 38, 2-((2-benzylbenzyl)thio)-5-((4-bromo-3,5-dimethyl-1H-pyrazol-1-yl)methyl)-1,3,4-oxadiazole]",1.03,> 50,1.18,1.04
"Cc1nc2ccccc2n1Cc1nnc(SCc2ccccc2-c2ccccc2)o1 [Compound 41, 2-(([1,1′-biphenyl]-2-ylmethyl)thio)-5-((2-methyl-1H-benzo[d]imidazol-1-yl)methyl)-1,3,4-oxadiazole]",0.69,19.7,1.21,0.91
"Cc1nn(Cc2nnc(N(C)Cc3ccccc3-c3ccccc3)o2)c(C)c1Br [Compound 44, N-([1,1′-biphenyl]-2-ylmethyl)-5-((4-bromo-3,5-dimethyl-1H-pyrazol-1-yl)methyl)-N-methyl-1,3,4-oxadiazol-2-amine]",> 50,> 50,> 50,29.4
"CC(=O)N(Cc1ccccc1-c1ccccc1)c1nnc(Cn2nc(C)c(Br)c2C)o1 [Compound 45, N-([1,1′-biphenyl]-2-ylmethyl)-N-(5-((4-bromo-3,5-dimethyl-1H-pyrazol-1-yl)methyl)-1,3,4-oxadiazol-2-yl)acetamide]",26.2,33.5,23.8,25.8
"Cc1nn(Cc2nnc(Cc3cccc(Cl)c3)o2)c(C)c1Br [Compound 46, 2-((4-bromo-3,5-dimethyl-1H-pyrazol-1-yl)methyl)-5-(3-chlorobenzyl)-1,3,4-oxadiazole]",24.3,> 50,27.5,21.8
"Cc1nn(CCc2nnc(SCc3ccccc3-c3ccccc3)o2)c(C)c1Br [Compound 49, 2-(([1,1′-biphenyl]-2-ylmethyl)thio)-5-(2-(4-bromo-3,5-dimethyl-1H-pyrazol-1-yl)ethyl)-1,3,4-oxadiazole]",> 50,> 50,> 50,> 50
"Cc1nn(Cc2nnc(/C=C/c3ccccc3C(C)C)o2)c(C)c1Br [Compound 50, (E)-2-((4-bromo-3,5-dimethyl-1H-pyrazol-1-yl)methyl)-5-(2-isopropylstyryl)-1,3,4-oxadiazole]",18.7,> 50,24.5,11.4
"Brc1ccc(OCc2nnc(SCc3ccccc3-c3ccccc3)o2)cc1 [Compound 58, 2-(([1,1′-biphenyl]-2-ylmethyl)thio)-5-((4-bromophenoxy)methyl)-1,3,4-oxadiazole]",> 50,> 50,> 50,44.3
"CC(c1ccccc1)c1nnc(SCc2ccccc2-c2ccccc2)o1 (stereo not drawn) [Compound 73, 2-(([1,1′-biphenyl]-2-ylmethyl)thio)-5-(1-phenylethyl)-1,3,4-oxadiazole]",17.2,> 50,> 50,41.7
"FC(F)(c1ccc(Br)cc1)c1nnc(SCc2ccccc2-c2ccccc2)o1 [Compound 74, 2-(([1,1′-biphenyl]-2-ylmethyl)thio)-5-((4-bromophenyl)difluoromethyl)-1,3,4-oxadiazole]",21.2,> 50,> 50,11

# From patent publication US11149033B2, “Heteroaryl compound, enantiomer, diastereomer or pharmaceutically acceptable salt thereof, and antiviral composition containing same as active ingredient” (priority 2016, dated 2021)
